Measured values published in patent publication US20240091110A1, “Oral Care Compositions and Methods of Use” (Colgate-Palmolive Company, priority 2019, published 2024).

System: mixed species biofilm
Test: Seahorse XFe Extracellular Flux Analyzer, Mitochondrial Respiration - Oxygen Consumption Rate (OCR) in mixed biofilm assay
Assay type: cell-based
Description: Samples with varying amounts of cannabidiol (CBD) are assessed for their effects on cellular metabolism with and without various source of zinc. Using the Seahorse XF^e Extracellular Flux Analyzer, biofilm samples are grown for 48 hrs. […] The biofilms are harvested for culture. Diluted biofilm and toothpaste slurry are loaded to each well. Glycolysis—Extracellular Acidification Rate (ECAR) and Mitochondrial Respiration—Oxygen Consumption Rate (OCR) is measured for 25-50 cycles (˜360 minutes). The “CBD Oil” is 5% CBD (by wt. of the CBD Oil) in Hemp seed oil.
Where the “OCR” is oxygen consumption rate units as measured using the Seahorse XF^e Extracellular Flux Analyzer: […]

Row | Structure (SMILES) | Average (OCR) (Table 3, separate experiment, stannous slurry, untreated 11489.9) | Average (OCR) (Table 1, CBD and zinc lactate, biofilm grown 48 hrs, untreated 25,669.50)
1 | [F][Sn][F] [0.2% by wt. Stannous Fluoride, Stannous Fluoride] | 10440.7 | –
2 | CC(O)C(=O)[O-].CC(O)C(=O)[O-].[Zn+2] (centres unmarked) [1.5% Zinc Lactate, Zinc Lactate] | – | 21,900.63
